# Results: US20050271676A1, “Inducing cellular immune responses to human immunodeficiency virus-1 using peptide and nucleic acid compositions” (Epimmune Inc., priority 1993, published 2005)
# No end group written: not given here.
# How the values were obtained:
# HLA-B51 (B*5101) = HLA-B51 (B*5101) (Homo sapiens, UniProt P01889, A329T/A93T/A95T/C349S/D138N/D201E/D98Y/E187L/E204Q/E69T/G107R/I218V/K202T/L105A/L119W/N104I/Q94N/R106L/R155S/R180L/S101N/S121T/S35A/S48A/V306I/V36M/Y195H/Y91F); test: purified HLA class I binding assay, B51 (B*5101)
# HLA-B*5401 = HLA-B*5401 (Homo sapiens, UniProt P01889, A329T/C349S/D138N/D201E/E176V/E187T/E204Q/E69G/I76V/K202T/L119W/R155S/R180L/S121T/S35A/S48A/V127L/V306I/V36M/Y140L); test: biochemical
# HLA-B*0702 = biological target: T1, HLA-B*0702 (Homo sapiens, UniProt P01889); test: purified HLA class I binding assay, B*0702
# T1 construct: endogenous in cells; host or cells: GM3107
# HLA-B*5301 = HLA-B*5301 (Homo sapiens, UniProt P01889, A329T/A93T/A95T/C349S/D201E/D98Y/E176V/E187L/E204Q/E69T/G107R/I218V/K202T/L105A/L119I/N104I/Q94N/R106L/R155S/R180L/S101N/S121R/S35A/S48A/T118I/V127L/V306I/V36M/Y140S/Y91F); test: purified HLA class I binding assay, B*5301
# HLA-B*3501 = HLA-B*3501 (Homo sapiens, UniProt P01889, A329T/A93T/A95T/C349S/D201E/D98Y/E176V/E187L/E204Q/E69T/I218V/K202T/L119I/Q94N/R155S/R180L/S121R/S35A/S48A/T118I/V127L/V306I/V36M/Y140S/Y91F); test: purified HLA class I binding assay, B*3501
# HLA-DRB1*0405 (DR4w15) = HLA-DRB1*0405 (DR4w15) (Homo sapiens, UniProt P01903+P01911, A100R/A169T/D86S/F76Y/I96L/K127E/L162R/M171V/N62H/P40V/Q125Y/R42H/S133A/S149N/S66Y/V115G/V209L/W38E); test: purified HLA class II binding assay, DRB1*0405 (DR4w15)
# HLA-DRB1*0901 (DR9) = biological target: T2, HLA-DRB1*0901 (DR9) (Homo sapiens, UniProt P01903+P01911, A100R/A103E/D57H/D86V/F55Y/F60I/F76Y/I96F/K127E/L162R/M171V/P40D/Q125H/Q99R/R33Q/R42F/S133A/S66N/T210M/V115G/W38K/Y107V/Y59G/Y89S); test: biochemical; assay type: binding
# T2 construct: endogenous in cells
# HLA-DRB1*0301 (DR3) = biological target: T3, HLA-DRB1*0301 (DR3) (Homo sapiens, UniProt P01903+P01911, A100K/A102G/A103R/A169T/F55Y/I96L/K41T/L162R/M171V/P40S/Q125H/Q178H/Q39Y/R42S/S66N/T106N/T262R/W38E/Y61H); test: purified HLA class II binding assay, DRB1*0301 (DR3), pH 4.5
# T3 construct: endogenous in cells; host or cells: MAT
# HLA-DRB1*1201 (DR5w12) = biological target: T4, HLA-DRB1*1201 (DR5w12) (Homo sapiens, UniProt P01903+P01911, A100R/A169T/D57E/D86V/F55L/H45Y/K41T/L162R/M171V/P40S/Q125H/Q178H/Q39Y/Q99D/R42G/S66L/T262R/V114A/V67L/W38E/Y59H/Y61H/Y89S); test: purified HLA class II binding assay, DRB1*1201 (DR5w12)
# T4 construct: endogenous in cells
# HLA-DRB1*0802 (DR8w2) = biological target: T5, HLA-DRB1*0802 (DR8w2) (Homo sapiens, UniProt P01903+P01911, A100R/A103L/A169T/F76Y/H45Y/I96F/K41T/L162R/M171V/P40S/Q125H/Q178H/Q39Y/Q99D/R218S/R42G/S66Y/V115G/W38E); test: biochemical; assay type: binding
# T5 construct: endogenous in cells
# HLA-DRB1*1101 (DR5w11) = biological target: T6, HLA-DRB1*1101 (DR5w11) (Homo sapiens, UniProt P01903+P01911, A100R/A169T/A87E/I96F/K41T/L162R/M171V/P40S/Q125H/Q178H/Q39Y/Q99D/R42S/S66Y/T262R/V115G/W38E); test: biochemical; assay type: binding
# T6 construct: endogenous in cells
# HLA-DRB1*0701 (DR7) = biological target: T7, HLA-DRB1*0701 (DR7) (Homo sapiens, UniProt P01903+P01911, A100R/A102G/A103Q/D57E/D86V/E43K/F76Y/K127E/L162R/M171V/P40G/Q125H/Q99D/R33Q/R42Y/R54Q/S133A/S66F/T210M/V115G/Y107V/Y59L/Y89S); test: biochemical; assay type: binding
# T7 construct: endogenous in cells; host or cells: Pitout
# HLA-DRB1*1302 (DR6w19) = HLA-DRB1*1302 (DR6w19) (Homo sapiens, UniProt P01903+P01911, A100E/A169T/K41T/L162R/M171V/P40S/Q125H/Q178H/Q39Y/Q99D/R42S/S66N/T262R/V115G/W38E/Y61H); test: purified HLA class II binding assay, DRB1*1302 (DR6w19)
# HLA-DRB1*1501 (DR2w2β1) = biological target: T8, HLA-DRB1*1501 (DR2w2β1) (Homo sapiens, UniProt P01903+P01911); test: purified HLA class II binding assay, DRB1*1501 (DR2w2β1)
# T8 construct: expressed in transfected cells
# HLA-DRB5*0101 (DR2w2β2) = biological target: T9, HLA-DRB5*0101 (DR2w2β2) (Homo sapiens, UniProt P01903+Q30154); test: biochemical; assay type: binding
# T9 construct: expressed in transfected cells
# HLA-DRB1*0401 (DR4w4) = biological target: T10, HLA-DRB1*0401 (DR4w4) (Homo sapiens, UniProt P01903+P01911, A100K/A169T/F76Y/I96L/K127E/L162R/M171V/N62H/P40V/Q125Y/R42H/S133A/S149N/S66Y/V115G/V209L/W38E); test: purified HLA class II binding assay, DRB1*0401 (DR4w4)
# T10 construct: endogenous in cells; host or cells: Preiss
# [1] = tested on: HLA-A11/K^b transgenic mice; test: CTL induction in HLA-A11/K^b transgenic mice after peptide immunization; assay type: in vivo; conditions: protocol as for HLA-A2 transgenic mice
# [2] = tested on: PBMC from patients infected with HIV; test: recall CTL responses, PBMC from HIV-infected patients, 51Cr release; assay type: cell-based, human
# HLA-A*0203 = HLA-A*0203 (Homo sapiens, UniProt P04439, A173T/D140Y/D185E/D98H/E277Q/G131W/G231S/I119V/I121R/I166T/I218V/L180W/L300P/L318F/N151K/N90K/P208A/P217A/Q86G/Q94H/R138H/R169H/T345S); test: purified HLA class I binding assay, A*0203
# [3] = tested on: A*0201/K^b transgenic mice; test: CTL induction in A*0201/K^b transgenic mice after peptide immunization; assay type: in vivo
# HLA-A*0206 = HLA-A*0206 (Homo sapiens, UniProt P04439, D140Y/D185E/D98H/E176V/E277Q/F33Y/G131W/G231S/I119V/I121R/I166T/I218V/L300P/L318F/N151K/N90K/P208A/P217A/Q86G/Q94H/R138H/R169H/T345S); test: purified HLA class I binding assay, A*0206
# HLA-A*6802 = HLA-A*6802 (Homo sapiens, UniProt P04439, A269V/D140Y/D185E/E176V/E277Q/E87N/F33Y/G231S/I121R/I166T/I218V/L180W/L300P/L318F/N151K/P208A/P217A/Q86R/R138H/R169H/S129P/T345S/V36M); test: purified HLA class I binding assay, A*6802
# [4] = HIV DR super motif peptides, unit not given
# T10 sequence (P01903 26-254 partner, other chains not shown): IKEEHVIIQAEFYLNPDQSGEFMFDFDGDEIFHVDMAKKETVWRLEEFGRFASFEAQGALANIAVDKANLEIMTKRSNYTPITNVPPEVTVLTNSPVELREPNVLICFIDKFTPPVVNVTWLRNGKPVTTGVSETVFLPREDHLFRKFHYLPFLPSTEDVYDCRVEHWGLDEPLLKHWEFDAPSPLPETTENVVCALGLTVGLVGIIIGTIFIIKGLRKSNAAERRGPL
# T3 sequence (P01903 26-254 partner, other chains not shown): as above
# T6 sequence (P01903 26-254, other chains not shown): as the sequence (P01903 26-254 partner, other chains not shown) above
molecule,measurement,setting,value
CC(C)C[C@H](NC(=O)[C@H](CO)NC(=O)[C@H](CCCNC(=N)N)NC(=O)[C@H](CC(C)C)NC(=O)[C@H](CO)NC(=O)[C@H](C)NC(=O)[C@H](CC(C)C)NC(=O)[C@@H]1CCCN1C(=O)[C@@H](N)Cc1ccc(O)cc1)C(=O)N[C@@H](Cc1ccccc1)C(=O)O [15.0268],IC50,HLA-B51 (B*5101),0.0393 µM
same,IC50,HLA-B*5401,0.714 µM
CC(C)C[C@H](NC(=O)[C@@H]1CCCN1C(=O)[C@@H](NC(=O)[C@H](CCC(N)=O)NC(=O)[C@@H]1CCCN1C(=O)[C@H](CCCNC(=N)N)NC(=O)[C@@H](NC(=O)[C@@H]1CCCN1C(=O)[C@@H](N)Cc1ccccc1)C(C)C)C(C)C)C(=O)O [1146.01],IC50,HLA-B*0702,0.0157 µM
same,IC50,HLA-B51 (B*5101),0.0116 µM
same,IC50,HLA-B*5301,0.482 µM
same,IC50,HLA-B*3501,0.043 µM
CC[C@H](C)[C@H](NC(=O)CNC(=O)[C@H](CCCCN)NC(=O)[C@H](Cc1c[nH]cn1)NC(=O)[C@H](C)NC(=O)[C@@H]1CCCN1C(=O)[C@@H](NC(=O)[C@H](Cc1c[nH]c2ccccc12)NC(=O)[C@H](C)NC(=O)[C@H](CC(C)C)NC(=O)[C@H](Cc1ccc(O)cc1)NC(=O)[C@@H](NC(=O)[C@H](CCCCN)NC(=O)[C@@H](N)CCC(=O)O)C(C)C)C(C)C)C(=O)NCC(=O)O [Peptide 27.0361],IC50,HLA-DRB1*0405 (DR4w15),0.027 µM
same,IC50,HLA-DRB1*0901 (DR9),0.144 µM
same,IC50,HLA-DRB1*0301 (DR3),3.23 µM
same,IC50,HLA-DRB1*1201 (DR5w12),6.48 µM
same,IC50,HLA-DRB1*0802 (DR8w2),0.031 µM
same,IC50,HLA-DRB1*1101 (DR5w11),0.037 µM
same,IC50,HLA-DRB1*0701 (DR7),0.018 µM
same,IC50,HLA-DRB1*1302 (DR6w19),3.5 µM
same,IC50,HLA-DRB1*1501 (DR2w2β1),0.021 µM
same,IC50,HLA-DRB5*0101 (DR2w2β2),0.0049 µM
same,IC50,HLA-DRB1*0401 (DR4w4),0.0093 µM
CC(C)[C@H](N)C(=O)N[C@H](C(=O)N[C@H](C(=O)N[C@@H](Cc1ccc(O)cc1)C(=O)N[C@@H](Cc1ccc(O)cc1)C(=O)NCC(=O)N[C@H](C(=O)N1CCC[C@H]1C(=O)N[C@H](C(=O)N[C@@H](Cc1c[nH]c2ccccc12)C(=O)N[C@@H](CCCCN)C(=O)O)C(C)C)C(C)C)C(C)C)[C@@H](C)O [Peptide 1069.47],induction of CTL in HLA-A11 transgenic mice,[1],induced CTL responses in transgenic mice
same,immunogenicity in HIV-infected patients,[2]; shown by collaborators,immunogenic in HIV-infected patients
CC[C@H](C)[C@H](NC(=O)CNC(=O)[C@H](Cc1c[nH]c2ccccc12)NC(=O)[C@@H](NC(=O)[C@@H](NC(=O)[C@H](CC(C)C)NC(=O)[C@H](CCC(N)=O)NC(=O)[C@H](CC(C)C)NC(=O)[C@@H](N)CC(C)C)[C@@H](C)O)C(C)C)C(=O)O [Peptide 1261.02],IC50,HLA-A*0203,0.0435 µM
same,Immunogenicity transgenic,"[3]; A2 Supermotif peptides, positive/tested transgenic",1/6
same,Immunogenicity transgenic,"[3]; A*0201/K^b transgenic mice, positive/tested",1/6
same,IC50,HLA-A*0206,0.0247 µM
same,IC50,HLA-A*6802,0.645 µM
same,Immunogenicity patients,"[2]; A2-supertype peptides, positive/tested HIV-infected patients",2/8
same,Immunogenicity patients,"[2]; A2 Supermotif peptides, positive/tested patients",2/8
CPKVSFEPI [1296.02],IC50,HLA-B*0702,0.1 µM
same,IC50,HLA-B*5301,2.45 µM
same,IC50,HLA-B*5401,0.1 µM
same,IC50,HLA-B*3501,5.14 µM
FPISPIETV [Peptide 1261.01],IC50,HLA-B*0702,3.44 µM
same,IC50,HLA-B*5401,0.0091 µM
same,IC50,HLA-B*3501,1.04 µM
HPVHAGPIA [1292.13],IC50,HLA-B*0702,0.05 µM
same,IC50,HLA-B*5301,4.43 µM
same,IC50,HLA-B*5401,0.0043 µM
same,IC50,HLA-B*3501,0.0116 µM
IPYNPQSQGVV [1296.03],IC50,HLA-B51 (B*5101),0.12 µM
same,IC50,HLA-B*5301,46.5 µM
same,IC50,HLA-B*5401,0.0667 µM
same,IC50,HLA-B*3501,72 µM
QQHLLQLTVWGTKQL,DR4w15 binding,HLA-DRB1*0405 (DR4w15); [4],0.2700
same,DR9 binding,HLA-DRB1*0901 (DR9),0.5100
same,DR3 binding,HLA-DRB1*0301 (DR3); [4],−0.0043
same,DR5w12 binding,HLA-DRB1*1201 (DR5w12); [4],0.4900
same,DR8w2 binding,HLA-DRB1*0802 (DR8w2),0.0210
same,DR5w11 binding,HLA-DRB1*1101 (DR5w11),0.0036
same,DR7 binding,HLA-DRB1*0701 (DR7),0.3900
same,DR6w19 binding,HLA-DRB1*1302 (DR6w19); [4],0.0180
same,DR2 wβ1 binding,HLA-DRB1*1501 (DR2w2β1); [4],0.7500
same,DR2w2β2 binding,HLA-DRB5*0101 (DR2w2β2),0.0580
same,DR4w4 binding,HLA-DRB1*0401 (DR4w4); [4],0.0330
VPLQLPPL [29.0028],IC50,HLA-B51 (B*5101),0.0008 µM
same,IC50,HLA-B*5301,46.5 µM
same,IC50,HLA-B*5401,0.27 µM
same,IC50,HLA-B*3501,6 µM
